Source: the supplement of paper PMC8741786
Values after ≈ are worked out from the molar mass of the structure shown.

Test system: Neisseria subflava/flavescens/perflava
Assay: minimum inhibitory concentration (ETEST)
Method: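 Oropharyngeal Neisseria isolates from MSM and employees in Belgium were identified to species by MALDI-TOF MS. MICs of azithromycin, ceftriaxone and ciprofloxacin were determined by ETEST on GC agar after 24 h at 36.5 °C and 5-7% CO2, in mg/L. Values beyond the strip range are reported as >256 (azithromycin) or <0.016 (ceftriaxone); isolates that did not grow are NA.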

O=C(O)c1cn(C2CC2)c2cc(N3CCNCC3)c(F)cc2c1=O [ciprofloxacin]
Details | minimum inhibitory concentration [µg/mL]
isolate id (sample isolate): 19041762_1, population: MSM, antibiotic use in previous 6 months: Yes | 1.5 (≈ 4.53 µM)
isolate id (sample isolate): 19041762_1.1, population: MSM, antibiotic use in previous 6 months: Yes | 3 (≈ 9.05 µM)
isolate id (sample isolate): 19041780_1, population: MSM, antibiotic use in previous 6 months: Yes | 0.25 (≈ 0.754 µM)
isolate id (sample isolate): 19042150_1, population: MSM, antibiotic use in previous 6 months: Yes | 0.25 (≈ 0.754 µM)
isolate id (sample isolate): 19042150_3, population: MSM, antibiotic use in previous 6 months: Yes | 0.032 (≈ 0.0966 µM)
isolate id (sample isolate): 19042756_1, population: MSM, antibiotic use in previous 6 months: Yes | 1 (≈ 3.02 µM)
isolate id (sample isolate): 19042756_2, population: MSM, antibiotic use in previous 6 months: Yes | 0.75 (≈ 2.26 µM)
isolate id (sample isolate): 19043201_1.1, population: MSM, antibiotic use in previous 6 months: No | 0.25 (≈ 0.754 µM)
isolate id (sample isolate): 19043201_2.1, population: MSM, antibiotic use in previous 6 months: No | 0.38 (≈ 1.15 µM)
isolate id (sample isolate): 19043201_3, population: MSM, antibiotic use in previous 6 months: No | 0.25 (≈ 0.754 µM)
isolate id (sample isolate): 19043274_3, population: MSM, antibiotic use in previous 6 months: Yes | 0.25 (≈ 0.754 µM)
isolate id (sample isolate): 19050474_1, population: MSM, antibiotic use in previous 6 months: No | 0.25 (≈ 0.754 µM)
isolate id (sample isolate): 19050514_1, population: MSM, antibiotic use in previous 6 months: Yes | 0.5 (≈ 1.51 µM)
isolate id (sample isolate): 19050949_1, population: MSM, antibiotic use in previous 6 months: No | 0.016 (≈ 0.0483 µM)
isolate id (sample isolate): 19050949_2, population: MSM, antibiotic use in previous 6 months: No | 0.38 (≈ 1.15 µM)
isolate id (sample isolate): 19050949_2.1, population: MSM, antibiotic use in previous 6 months: No | 0.38 (≈ 1.15 µM)
isolate id (sample isolate): 19051904_2, population: MSM, antibiotic use in previous 6 months: Yes | 0.38 (≈ 1.15 µM)
isolate id (sample isolate): 19051904_3, population: MSM, antibiotic use in previous 6 months: Yes | 0.38 (≈ 1.15 µM)
isolate id (sample isolate): 19052394_1, population: MSM, antibiotic use in previous 6 months: Yes | 0.19 (≈ 0.573 µM)
isolate id (sample isolate): 19052394_1.1, population: MSM, antibiotic use in previous 6 months: Yes | 0.19 (≈ 0.573 µM)
isolate id (sample isolate): 19060089_1, population: MSM, antibiotic use in previous 6 months: Yes | 0.38 (≈ 1.15 µM)
isolate id (sample isolate): 19062994_1, population: MSM, antibiotic use in previous 6 months: Yes | 0.016 (≈ 0.0483 µM)
isolate id (sample isolate): Co000761_2, population: general population, antibiotic use in previous 6 months: No | 0.012 (≈ 0.0362 µM)
isolate id (sample isolate): Co000761_3, population: general population, antibiotic use in previous 6 months: No | 0.75 (≈ 2.26 µM)
isolate id (sample isolate): Co000761_5, population: general population, antibiotic use in previous 6 months: No | 0.38 (≈ 1.15 µM)
isolate id (sample isolate): Co000761_6, population: general population, antibiotic use in previous 6 months: No | 0.008 (≈ 0.0241 µM)
isolate id (sample isolate): Co000762_3, population: general population, antibiotic use in previous 6 months: No | 0.016 (≈ 0.0483 µM)
isolate id (sample isolate): Co000762_4, population: general population, antibiotic use in previous 6 months: No | 0.016 (≈ 0.0483 µM)
isolate id (sample isolate): Co000763_2, population: general population, antibiotic use in previous 6 months: No | 0.008 (≈ 0.0241 µM)
isolate id (sample isolate): Co000764_1, population: general population, antibiotic use in previous 6 months: No | 0.032 (≈ 0.0966 µM)
isolate id (sample isolate): Co000764_2, population: general population, antibiotic use in previous 6 months: No | 0.047 (≈ 0.142 µM)
isolate id (sample isolate): Co000765_2, population: general population, antibiotic use in previous 6 months: No | 0.023 (≈ 0.0694 µM)
isolate id (sample isolate): Co000765_3, population: general population, antibiotic use in previous 6 months: No | 0.016 (≈ 0.0483 µM)
isolate id (sample isolate): Co000765_4, population: general population, antibiotic use in previous 6 months: No | 0.012 (≈ 0.0362 µM)
isolate id (sample isolate): Co000766_1, population: general population, antibiotic use in previous 6 months: No | 0.047 (≈ 0.142 µM)
isolate id (sample isolate): Co000766_3, population: general population, antibiotic use in previous 6 months: No | 0.008 (≈ 0.0241 µM)
isolate id (sample isolate): Co000767_1, population: general population, antibiotic use in previous 6 months: No | 0.008 (≈ 0.0241 µM)
isolate id (sample isolate): Co000767_2, population: general population, antibiotic use in previous 6 months: No | 1 (≈ 3.02 µM)
isolate id (sample isolate): Co000767_4, population: general population, antibiotic use in previous 6 months: No | 0.016 (≈ 0.0483 µM)
isolate id (sample isolate): Co000767_5, population: general population, antibiotic use in previous 6 months: No | 0.38 (≈ 1.15 µM)
isolate id (sample isolate): Co000767_6, population: general population, antibiotic use in previous 6 months: No | 0.006 (≈ 0.0181 µM)
isolate id (sample isolate): Co000767_7, population: general population, antibiotic use in previous 6 months: No | 0.38 (≈ 1.15 µM)
isolate id (sample isolate): Co000768_1, population: general population, antibiotic use in previous 6 months: No | 0.006 (≈ 0.0181 µM)
isolate id (sample isolate): Co000768_2, population: general population, antibiotic use in previous 6 months: No | 0.008 (≈ 0.0241 µM)
isolate id (sample isolate): Co000769_1, population: general population, antibiotic use in previous 6 months: No | 0.5 (≈ 1.51 µM)
isolate id (sample isolate): Co000769_2, population: general population, antibiotic use in previous 6 months: No | 0.008 (≈ 0.0241 µM)
isolate id (sample isolate): Co000769_4, population: general population, antibiotic use in previous 6 months: No | 0.5 (≈ 1.51 µM)
isolate id (sample isolate): Co000770_2, population: general population, antibiotic use in previous 6 months: No | 0.25 (≈ 0.754 µM)
isolate id (sample isolate): Co000770_4, population: general population, antibiotic use in previous 6 months: No | 0.5 (≈ 1.51 µM)
isolate id (sample isolate): Co000770_6, population: general population, antibiotic use in previous 6 months: No | 0.047 (≈ 0.142 µM)
isolate id (sample isolate): Co000771_2, population: general population, antibiotic use in previous 6 months: No | 1 (≈ 3.02 µM)
isolate id (sample isolate): Co000771_3, population: general population, antibiotic use in previous 6 months: No | 0.006 (≈ 0.0181 µM)
isolate id (sample isolate): Co000771_5, population: general population, antibiotic use in previous 6 months: No | 0.016 (≈ 0.0483 µM)
isolate id (sample isolate): Co000772_1, population: general population, antibiotic use in previous 6 months: No | 0.023 (≈ 0.0694 µM)
isolate id (sample isolate): Co000772_2, population: general population, antibiotic use in previous 6 months: No | 0.016 (≈ 0.0483 µM)
isolate id (sample isolate): Co000772_4, population: general population, antibiotic use in previous 6 months: No | 0.016 (≈ 0.0483 µM)
isolate id (sample isolate): Co000772_5, population: general population, antibiotic use in previous 6 months: No | 0.012 (≈ 0.0362 µM)
isolate id (sample isolate): Co000772_6, population: general population, antibiotic use in previous 6 months: No | 0.008 (≈ 0.0241 µM)
isolate id (sample isolate): Co000773_1, population: general population, antibiotic use in previous 6 months: No | 0.38 (≈ 1.15 µM)
isolate id (sample isolate): Co000773_2, population: general population, antibiotic use in previous 6 months: No | 0.38 (≈ 1.15 µM)
isolate id (sample isolate): Co000774_2, population: general population, antibiotic use in previous 6 months: No | 0.047 (≈ 0.142 µM)
isolate id (sample isolate): Co000775_1, population: general population, antibiotic use in previous 6 months: No | 1 (≈ 3.02 µM)
isolate id (sample isolate): Co000775_2, population: general population, antibiotic use in previous 6 months: No | 0.016 (≈ 0.0483 µM)
isolate id (sample isolate): Co000775_3, population: general population, antibiotic use in previous 6 months: No | 0.25 (≈ 0.754 µM)
isolate id (sample isolate): Co000776_2, population: general population, antibiotic use in previous 6 months: No | 0.047 (≈ 0.142 µM)
isolate id (sample isolate): Co000776_3, population: general population, antibiotic use in previous 6 months: No | 0.047 (≈ 0.142 µM)
isolate id (sample isolate): Co000777_1, population: general population, antibiotic use in previous 6 months: No | 1 (≈ 3.02 µM)
isolate id (sample isolate): Co000777_2, population: general population, antibiotic use in previous 6 months: No | 0.5 (≈ 1.51 µM)
isolate id (sample isolate): Co000777_4, population: general population, antibiotic use in previous 6 months: No | 2 (≈ 6.04 µM)
isolate id (sample isolate): Co000778_1, population: general population, antibiotic use in previous 6 months: No | 0.012 (≈ 0.0362 µM)
isolate id (sample isolate): Co000778_2, population: general population, antibiotic use in previous 6 months: No | > 32
isolate id (sample isolate): Co000778_3, population: general population, antibiotic use in previous 6 months: No | 0.012 (≈ 0.0362 µM)
isolate id (sample isolate): Co000780_4, population: general population, antibiotic use in previous 6 months: No | 0.75 (≈ 2.26 µM)
isolate id (sample isolate): Co000781_1, population: general population, antibiotic use in previous 6 months: No | 0.5 (≈ 1.51 µM)
isolate id (sample isolate): Co000781_3, population: general population, antibiotic use in previous 6 months: No | 2 (≈ 6.04 µM)
